Tests used:
[1] = pKa of hindered amines by non-aqueous titration; assay type: physicochemical; conditions: extrapolated from calibration plot
Excerpt: The pKa measurements of the hindered amines are obtained by non-aqueous titration. Organic reference materials with known pKa values in water, are titrated in non-aqueous media (1:1 acetonitrile:chloroform and 0.1 N perchloric acid/dioxane titrant system) to generate a non-aqueous calibration plot of half-neutralization potential (HNP) versus pKa. The "unknown" hindered amines are then titrated to determine the HNP, and extrapolated to obtain the corresponding pKa from this calibration plot.

[2] = Weight loss of additive by thermogravimetric analysis (TGA); assay type: physicochemical; conditions: 5° C./min, nitrogen; for Temperature at which stated weight loss of additive occurs, 10%: 10% weight loss; for Temperature at which stated weight loss of additive occurs, 5%: 5% weight loss
Experimental: Weight loss data for the hindered amines are obtained by thermogravimetric analysis on a DuPont model 2100 analyzer, operated at a scan rate of 5° C./min in a nitrogen atmosphere using 4-5 mg sample in aluminum pans.

[3] = Discoloration (delta E), Dry XAW, two-pass compounded clear PC/ABS (Example 6); conditions: in words
Experimental: Accelerated weathering is performed using an Atlas Ci65A Weather-o-meter ("XAW"), operated in either "Dry XAW" mode (ASTM G26-90 method C) or interior auto ("IAXAW") (black panel temperature 89° C., light/dark cycle 3.8 hr/1.0 hr; irradiance 0.55 watt/m^2, inner filter-quartz, outer filter--high borate.
Yellowness Index and delta E color are performed as per ASTM D-1925, using a Chroma-Sensor CS-5 Colorimeter, operated at 10 degree, small area view, specular included.
This polymer blend is prepared by two-step compounding. The hindered amine is extrusion compounded with ABS on a 18 mm twin screw extruder with set temperatures (throat to die, ° C.) of 170/200/215/225/225/225. The ABS is optionally redried then extrusion compounded with an equal weight of polycarbonate to achieve a 50/50 wt/wt ratio blend. TINUVIN® 234 is added during the second extrusion compounding step although the UV absorber can also be added during the first compounding step.
Thereafter, chip impact bars are prepared and subjected to dry XAW accelerated weathering. The samples are removed at selected intervals for color measurement and then for destructive chip impact testing.

| SMILES | Approximate pKa [1] | Temperature at which stated weight loss of additive occurs, 2% ([2]; 2% weight loss (printed in 5% column)) | Temperature at which stated weight loss of additive occurs, 10% [2] | Temperature at which stated weight loss of additive occurs, 1% ([2]; 1% weight loss (printed in 5% column)) | color stability [3] | Temperature at which stated weight loss of additive occurs, 5% [2] |
| --- | --- | --- | --- | --- | --- | --- |
| CN1C(C)(C)CN(CCN(c2nc(N(CCN3CC(C)(C)N(C)C(C)(C)C3=O)C3CCCCC3)nc(N(CCN3CC(C)(C)N(C)C(C)(C)C3=O)C3CCCCC3)n2)C2CCCCC2)C(=O)C1(C)C [GOODRITE ® 3159, 1,3,5-tris{N-cyclohexyl-N-[2-(3,3,4,5,5-pentaamethylpiperazin-2-on-1-yl)ethyl]amino}-s-triazine] | ~6.1 | 319 °C | 372 °C |  |  |  |
| CC1(C)CC(OC(=O)CCCCCCCCC(=O)OC2CC(C)(C)NC(C)(C)C2)CC(C)(C)N1 [TINUVIN ® 770, bis(2,2,6,6-tetramethylpiperidin-4-yl) sebacate] | ~9.0 |  | 260 °C | 200 °C |  |  |
| CC(C)(c1ccccc1)c1cc(-n2nc3ccccc3n2)c(O)c(C(C)(C)c2ccccc2)c1 [TINUVIN® 234, 2-(2-hydroxy-3,5-di-α-cumylphenyl)-2H-benzotriazole] |  |  |  |  | reasonably equivalent color stability |  |
| CC1(C)CN(CCN(c2nc(N(CCN3CC(C)(C)NC(C)(C)C3=O)C3CCCCC3)nc(N(CCN3CC(C)(C)NC(C)(C)C3=O)C3CCCCC3)n2)C2CCCCC2)C(=O)C(C)(C)N1 [GOODRITE ® 3150, 1,3,5-tris{N-cyclohexyl-N-[2-(3,3,5,5-tetramethylpiperazin-2-on-1-yl)ethyl]amino}-s-triazine] | ~6.7 |  | 362 °C |  | reasonably equivalent color stability | 345 °C |
| CCCCCCCCON1C(C)(C)CC(OC(=O)CCCCCCCCC(=O)OC2CC(C)(C)N(OCCCCCCCC)C(C)(C)C2)CC1(C)C [TINUVIN ® 123, bis(1-octyloxy-2,2,6,6-tetramethylpiperidin-4-yl) sebacate] | ~4.4 |  | 236 °C |  |  | 222 °C |
